# Test results as given in US8158621B2, “Methods of treating or preventing autoimmune diseases with 2,4-pyrimidinediamine compounds” (Rigel Pharmaceuticals, Inc., priority 2002, dated 2012).
# Where two headings read alike, the source gives them in different places.
# How the values were obtained:
# [1] = tested on: cultured human mast cells (CHMC); assay: CHMC low cell density IgE activation: LTC4 assay; type: cell-based; details: anti-IgE activation, LTC4 release
# Method in brief: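 Cultured human mast cells at low density (1000-1500 per well) rested 1 h at 37° C, then stimulated with anti-IgE for 30 min at 37° C. Supernatant tryptase measured with fluorogenic substrate (30 min, room temperature); LTC4 quantified by ELISA on diluted supernatant.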
# [2] = tested on: basophil cells (human peripheral blood); assay: Basophil anti-IgE activation: histamine release assay; type: cell-based
# Method in brief: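 Histamine in supernatants was quantified by ELISA after 30-minute stimulation at 37 °C of red-cell-depleted peripheral blood cells from dust-mite-allergic donors. Cells were first combined with compound across an 8-concentration range in 0.5% DMSO, in triplicate.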
# [3] = Sheep model of allergic asthma; type: in vivo
# Description: In the sheep model of allergic asthma, sheep are administered aerosols of test article via an endotracheal tube, followed by an aerosol challenge with antigen extracted from the roundworm, Ascaris suum, to which the sheep are naturally allergic. Allergen challenge leads to direct bronchoconstriction (both EAR and LAR) and a persistent non-specific AHR. These three characteristics are similar to those seen in human allergic asthmatics. The activity of the test agent is determined by changes in the lung resistance (RL), which is calculated from measurements of transpulmonary pressure, flow, and respiratory volume. […] The LAR is a less pronounced increase in RL, which starts approximately 5-6 hours following allergen challenge and is resolved by 8 hours post-challenge. Twenty-four hours after the challenge, a dose response to carbachol is measured to determine the AHR, which is expressed as the dose of carbachol required to increase RL by 400% over baseline. (This measurement is referred to as the provocative concentration of carbachol that elicits a 400% increase in RL over baseline (PC400). The data are compared to historical control data for the same individual when administered a saline control aerosol and challenged with Ascaris suum.
# [4] = tested on: bone marrow derived mast cells (BMMC); assay: BMMC high cell density IgE activation: IL-6; type: cell-based, mouse; details: high cell density; read-out: BMMC anti-IgE IL-6
# Method in brief: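 Mediator release from sensitized BMMC: after 1 h compound exposure at 37 °C (0.5% DMSO), cells challenged with DNP-BSA for 1 h and early supernatant collected. Cells then recultured 4-5 h in conditioned medium with compound; cytokines IL-6 and TNFα quantified by ELISA.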
# [5] = tested on: differentiated human macrophages; assay: Macrophage activation, IgG stimulation: IL-6; type: cell-based; details: stimulus (IgG or LPS) not given; read-out: Monocytes/Macrophage IL-6 IC50
# Description: CD 14+ monocytes were purified from PBMC (Allcells # PB002) using the Monocyte Isolation kit (Miltenyi biotec #130-045-501) as per the manufacturer's instructions. Purity was assessed by measuring the percentage of CD14+ cells by flow cytometry. Typically >90% purity is achieved. The purified CD14+ cells are then plated out (6×10^6 cells/150 cm TC dish in 15 mls media) in Macrophage-SFM (Gibco #12065-074) with 100 ng/ml of M-CSF (Pepro Tech #300-25) and allowed to differentiate for five days. At the end of that period, cell morphology and cell surface markers (CD14, HLA-DR, B7.1, B7.2, CD64, CD32, and CD16) reflected the presence of mature differentiated macrophage.
# A negative control consisting of the F(ab′)2 fragment was also coated to assess background stimulation. Unbound antibody was washed away 2× with 200 ul PBS. 20 ul of 5× compound was added to each well, followed by the addition 15 k cells of differentiated macrophage in 80 uL that had been scraped off of the plates. The cells were incubated for 16 hr in a 37° C. incubator, and supernatants were collected for Luminex analysis for IL-6 and TNFα, essentially as described for the primary T-cells, above.
# Varied concentrations of compound were compared to solvent only to determine the IC50 of each compound for each cytokine Representative IC50 s for 2,4-pyrimidinediamine compounds of the invention are shown in Table 11.
# [6] = basophils, anti-IgE activation, histamine release, read-out: Basophils anti-IgE Histamine IC50
# [7] = dose, pretreatment and vehicle per compound as in TABLE 5
# [8] = administered in an aqueous suspension
smiles,measurement,setting,value
COc1ccc(Nc2ncc(F)c(Nc3ccc(OC)c(OC)c3)n2)cc1OC [Compound R926110],IC50,[1],1420 nM
same,IC50,[2]; [6],300 nM
Fc1cnc(Nc2ccc3c(c2)OCCO3)nc1Nc1ccc2c(c1)OCCO2 [Compound R926109],IC50,[1],730 nM
same,IC50,[2]; [6],150 nM
CNC(=O)COc1cccc(Nc2ncc(F)c(Nc3ccc4c(c3)NCCO4)n2)c1 [Compound R921219],EAR,[3]; [7],greatly reduced
same,LAR and AHR,[3]; [7],blocked
COc1cc(Nc2ncc(F)c(Nc3ccc4c(c3)NC(=O)C(C)(C)O4)n2)cc(OC)c1 [Compound R927050],IC50,[4],11 nM
same,IC50,[5],66 nM
CC1(C)Oc2ccc(Nc3nc(Nc4cc(Cl)cc(Cl)c4)ncc3F)cc2NC1=O [Compound R927064],IC50,[4],819 nM
CNC(=O)COc1cccc(Nc2ncc(F)c(Nc3ccc4c(n3)NC(=O)C(C)(C)O4)n2)c1 [Compound R940347],IC50,[5],19 nM
COc1ccc(Nc2ncc(F)c(Nc3cccc(O)c3)n2)cc1OC [Compound R926113],IC50,[1],490 nM
same,IC50,[2]; [6],270 nM
OCCCn1ncc2cc(Nc3ncc(F)c(Nc4ccc(Cl)c(Cl)c4)n3)ccc21 [Compound R935391],IC50,[4],550 nM
same,IC50,[5],959 nM
Oc1cccc(Nc2ncc(F)c(Nc3cccc(O)c3)n2)c1 [Compound R921218],IC50,[1],550 nM
same,IC50,[2]; [6],240 nM
same,EAR,[3]; [8],failed to inhibit
Nc1cccc(Nc2ncc(F)c(Nc3cccc(N)c3)n2)c1 [Compound R921302],IC50,[2]; read-out: Basophils anti-IgE Histamine,190 nM
same,EAR,[3]; [8],failed to inhibit
same,EAR,[3]; [7],unaffected
same,LAR and AHR,[3]; [7],blocked
CNC(=O)COc1cccc(Nc2ncc(F)c(Nc3cccc(O)c3)n2)c1 [Compound R926508],EAR,[3]; [7],greatly reduced
same,LAR and AHR,[3]; [7],blocked
CC1(C)Oc2ccc(Nc3nc(Nc4ccc5cn[nH]c5c4)ncc3F)cc2NC1=O [Compound R940363],IC50,[5],95 nM
